Experimental data from patent US11292801B2, “Calpain modulators and therapeutic uses thereof” (Blade Therapeutics, Inc., priority 2016, dated 2022).
Where two headings read alike, the source gives them in different places.

Assays:
[1] = rcm bond
Human Calpain 1/NS1 = target: T1, Human Calpain 1/NS1 (Homo sapiens, UniProt P07384); assay: Biochemical inhibition of calpain 1, continuous fluorescence (FRET substrate) assay; conditions: mean, read-out: Human Calpain 1/NS1 IC50 (nM)_MEAN
T1 sequence (P07384 1-714): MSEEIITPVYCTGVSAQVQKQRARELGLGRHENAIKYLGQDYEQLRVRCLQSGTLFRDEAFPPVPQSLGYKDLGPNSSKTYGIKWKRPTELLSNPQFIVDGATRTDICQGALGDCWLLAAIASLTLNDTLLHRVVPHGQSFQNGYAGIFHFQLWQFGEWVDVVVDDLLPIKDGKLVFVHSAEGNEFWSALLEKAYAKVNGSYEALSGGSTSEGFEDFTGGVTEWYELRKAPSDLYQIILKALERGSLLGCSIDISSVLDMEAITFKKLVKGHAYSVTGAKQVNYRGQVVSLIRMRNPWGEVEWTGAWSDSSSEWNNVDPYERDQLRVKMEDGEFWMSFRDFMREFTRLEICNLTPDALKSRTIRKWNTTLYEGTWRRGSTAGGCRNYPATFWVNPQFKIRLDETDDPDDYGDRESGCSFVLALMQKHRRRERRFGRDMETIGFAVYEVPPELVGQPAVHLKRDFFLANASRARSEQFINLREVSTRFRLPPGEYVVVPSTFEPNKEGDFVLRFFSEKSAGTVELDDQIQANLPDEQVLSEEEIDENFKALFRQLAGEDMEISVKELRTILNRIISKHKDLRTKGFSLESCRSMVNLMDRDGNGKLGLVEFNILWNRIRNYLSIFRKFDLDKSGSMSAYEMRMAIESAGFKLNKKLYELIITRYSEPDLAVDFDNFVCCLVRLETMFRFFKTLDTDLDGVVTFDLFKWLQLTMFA
T1 sequence (P04632 1-268 partner): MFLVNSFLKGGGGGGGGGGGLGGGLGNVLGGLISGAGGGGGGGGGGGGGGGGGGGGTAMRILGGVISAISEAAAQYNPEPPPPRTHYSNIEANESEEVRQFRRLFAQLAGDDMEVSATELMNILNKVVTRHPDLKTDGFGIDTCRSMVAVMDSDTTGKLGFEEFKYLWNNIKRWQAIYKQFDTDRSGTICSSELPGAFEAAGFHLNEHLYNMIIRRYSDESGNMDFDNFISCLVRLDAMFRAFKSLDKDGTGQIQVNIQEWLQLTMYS
In short: (§1)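 IC50 values come from 4-parameter fits of progress-curve rates (1-5 min slopes) against log inhibitor concentration. Calpain and inhibitor premixed at ambient 25C in Tris pH ~7.5/NaCl/DTT buffer, then CaCl2 and FRET substrate added to activate; 5-FAM fluorescence (ex 490/em 520) followed 10 min.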

Human Calpain 2/NS1 = target: T2, Human Calpain 2/NS1 (Homo sapiens, UniProt P17655); assay: Biochemical inhibition of calpain 2, continuous fluorescence (FRET substrate) assay; conditions: mean, read-out: Human Calpain 2/NS1 IC50 (nM)_MEAN
T2 sequence (P17655 1-700): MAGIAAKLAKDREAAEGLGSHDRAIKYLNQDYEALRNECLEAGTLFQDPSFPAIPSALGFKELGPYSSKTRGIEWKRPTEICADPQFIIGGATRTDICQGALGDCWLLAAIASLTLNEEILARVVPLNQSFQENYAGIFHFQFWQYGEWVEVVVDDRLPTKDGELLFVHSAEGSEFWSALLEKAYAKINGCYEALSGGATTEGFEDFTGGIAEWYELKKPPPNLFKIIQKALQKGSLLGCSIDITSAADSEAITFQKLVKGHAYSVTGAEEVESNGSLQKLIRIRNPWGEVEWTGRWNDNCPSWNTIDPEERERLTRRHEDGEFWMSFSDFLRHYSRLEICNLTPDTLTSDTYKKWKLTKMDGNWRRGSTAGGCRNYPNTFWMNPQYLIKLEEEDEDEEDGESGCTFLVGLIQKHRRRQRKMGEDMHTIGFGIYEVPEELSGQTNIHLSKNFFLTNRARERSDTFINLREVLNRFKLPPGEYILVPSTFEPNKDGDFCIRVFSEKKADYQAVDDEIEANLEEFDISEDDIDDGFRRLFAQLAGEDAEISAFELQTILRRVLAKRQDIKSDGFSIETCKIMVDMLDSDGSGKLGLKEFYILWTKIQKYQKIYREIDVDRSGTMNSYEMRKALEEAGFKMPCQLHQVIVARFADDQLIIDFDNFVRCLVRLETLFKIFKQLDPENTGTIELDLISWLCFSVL
T2 sequence (P04632 1-268 partner): T1 sequence (P04632 1-268 partner)
In short: as §1

Human Calpain 9/NS1 = target: T3, Human Calpain 9/NS1 (Homo sapiens, UniProt O14815); assay: Biochemical inhibition of calpain 9, continuous fluorescence (FRET substrate) assay; conditions: mean, read-out: Human Calpain 9/NS1 IC50 (nM)_MEAN
T3 sequence (O14815 1-690): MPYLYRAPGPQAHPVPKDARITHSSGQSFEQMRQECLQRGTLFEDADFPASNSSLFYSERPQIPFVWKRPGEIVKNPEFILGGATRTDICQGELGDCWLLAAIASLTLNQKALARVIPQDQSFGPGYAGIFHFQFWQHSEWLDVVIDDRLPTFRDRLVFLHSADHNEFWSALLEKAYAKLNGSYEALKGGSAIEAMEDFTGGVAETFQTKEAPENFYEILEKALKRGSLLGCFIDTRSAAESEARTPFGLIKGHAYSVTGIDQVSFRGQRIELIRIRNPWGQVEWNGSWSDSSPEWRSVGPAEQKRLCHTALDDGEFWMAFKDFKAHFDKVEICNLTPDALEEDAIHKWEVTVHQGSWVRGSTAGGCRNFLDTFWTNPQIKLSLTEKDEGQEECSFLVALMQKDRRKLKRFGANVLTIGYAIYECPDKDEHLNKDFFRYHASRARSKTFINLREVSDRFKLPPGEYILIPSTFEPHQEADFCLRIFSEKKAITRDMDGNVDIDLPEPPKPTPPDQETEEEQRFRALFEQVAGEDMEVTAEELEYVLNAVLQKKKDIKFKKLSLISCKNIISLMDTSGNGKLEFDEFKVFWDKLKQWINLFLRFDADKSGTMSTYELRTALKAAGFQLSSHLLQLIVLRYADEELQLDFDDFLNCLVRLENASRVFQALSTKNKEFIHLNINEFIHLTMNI
T3 sequence (P04632 1-268 partner): T1 sequence (P04632 1-268 partner)
In short: as §1

Row | Compound | IC50 (Human Calpain 1/NS1) | IC50 (Human Calpain 2/NS1) | IC50 (Human Calpain 9/NS1) | further results
1 | CON(C)C(=O)[C@@H]1CC=CCOCCOCc2ccccc2C(=O)N1 | – | – | – | ring closure, yield of all isomers ([1]; from C=CCOCCOCc1ccccc1C(=O)N[C@@H](CC=C)C(=O)N(C)OC, Grubbs 2nd generation catalyst, DCE, 6.64 mM, 80.0 °C, 10.0 h): 86.7%; ring closure, yield of all isomers ([1]; from C=CCOCCOCc1ccccc1C(=O)N[C@@H](CC=C)C(=O)N(C)OC, Grubbs II, 1,2-dichloroethane, 6.64 mM, 80.0 °C, 10.0 h): 91.3%
2 | COC(=O)[C@@H]1Cc2ccc(cc2)CC=CCc2cccc(c2)-c2ccn(n2)-c2ncccc2C(=O)N1 | – | – | – | ring closure, yield of all isomers ([1]; from C=CCc1ccc(C[C@H](NC(=O)c2cccnc2-n2ccc(-c3cccc(CC=C)c3)n2)C(=O)OC)cc1, Hoveyda-Grubbs catalyst 1st generation, DCE, 4.94 mM, 90.0 °C, 64.0 h): 43.6%
3 | CON(C)C(=O)[C@@H]1CC=CCCCCCc2ncccc2C(=O)N1 | – | – | – | ring closure, yield of all isomers ([1]; from C=CCCCCCc1ncccc1C(=O)N[C@@H](CC=C)C(=O)N(C)OC, Grubbs catalyst 2nd generation, DCE, 9.93 mM, 95.0 °C, 48.0 h): 65.1%
4 | CON(C)C(=O)[C@@H]1CC=CCCCCCc2ccccc2C(=O)N1 | – | – | – | ring closure, yield of all isomers ([1]; from C=CCCCCCc1ccccc1C(=O)N[C@@H](CC=C)C(=O)N(C)OC, Grubbs 2nd generation catalyst, DCM, 6.37 mM, 48.0 °C, 16.0 h): 49.4%
5 | COC(=O)[C@@H]1Cc2ccc(cc2)CC=CCc2ccc3nn(cc3c2)-c2ncccc2C(=O)N1 | – | – | – | ring closure, yield of all isomers ([1]; from C=CCc1ccc(C[C@H](NC(=O)c2cccnc2-n2cc3cc(CC=C)ccc3n2)C(=O)OC)cc1, Zhan catalyst-1B, DCE, 3.09 mM, 90.0 °C, 14.0 h): 19.4%
6 | COC(=O)[C@@H]1Cc2ccc(cc2)OCC=CCOc2cccc(c2)-c2ccn(n2)-c2ncccc2C(=O)N1 | – | – | – | ring closure, yield of all isomers ([1]; from C=CCOc1ccc(C[C@H](NC(=O)c2cccnc2-n2ccc(-c3cccc(OCC=C)c3)n2)C(=O)OC)cc1, Grubbs II, 1,2-dichloroethane, 8.35 mM, 90.0 °C, 48.0 h): 47%
7 | CON(C)C(=O)[C@@H]1CC=CCCOc2ccnc(c2)-c2ccccc2C(=O)N1 | – | – | – | ring closure, yield of all isomers ([1]; from C=CCCOc1ccnc(-c2ccccc2C(=O)N[C@@H](CC=C)C(=O)N(C)OC)c1, Zhan Catalyst-1B, DCE, 2.87 mM, 95.0 °C, 16.0 h): 43.4%
8 | CCOC(=O)[C@@H]1CC=CCCCCCc2ccccc2C(=O)N1 | – | – | – | ring closure, yield of all isomers ([1]; from C=CCCCCCc1ccccc1C(=O)N[C@@H](CC=C)C(=O)OCC, Grubbs 2nd generation catalyst, DCM, 8.31 mM, 50.0 °C, 14.0 h): 18.1%
9 | CCNC(=O)C(=O)[C@@H]1CCCCCCCCc2ccccc2C(=O)N1 [Compound 25, (S)—N-ethyl-2-oxo-2-(1-oxo-2,3,4,5,6,7,8,9,10,11-decahydro-1h-benzo[c][1]aza-cyclotridecin-3-yl)acetamide] | > 10000 nM | > 10000 nM | > 10000 nM | –
10 | O=C[C@@H]1CCCCCCCCc2ccccc2C(=O)N1 [Compound 15, (S)-1-Oxo-2,3,4,5,6,7,8,9,10,11-decahydro-1h-benzo[c][1]aza-cyclotridecine-3-carbaldehyde] | 3000 to 10000 nM | < 3000 nM | < 3000 nM | –
11 | CCNC(=O)C(=O)[C@@H]1Cc2ccc(cc2)OCCCCOc2ccc3c(cnn3-c3ncccc3C(=O)N1)c2 [Compound 47, N-ethyl-2-oxo-2-((5S)-3-oxo-1H-8,13-dioxa-4-aza-1(1,5)-indazola-2(2,3)-pyridina-7(1,4)-benzenacyclotridecaphane-5-yl)acetamide] | < 3000 nM | < 3000 nM | < 3000 nM | –
12 | COCCOCCOCCNC(=O)C(=O)C1CCCCOCCOCc2ccccc2C(=O)N1 (stereo not drawn) [Compound 122, N-(2-(2-(2-methoxyethoxy)ethoxy)ethyl)-2-oxo-2-(12-oxo-1,3,4,6,7,8,9,10,11,12-decahydrobenzo[f][1,4]dioxa[9]azacyclotetradecin-10-yl)acetamide] | > 10000 nM | > 10000 nM | > 10000 nM | –
13 | O=C(NCCN1CCOCC1)C(=O)C1CCCCOCCOCc2ccccc2C(=O)N1 (stereo not drawn) [Compound 80, N-(2-morpholinoethyl)-2-oxo-2-(12-oxo-1,3,4,6,7,8,9,10,11,12-decahydrobenzo[f][1,4]dioxa[9]azacyclotetradecin-10-yl)acetamide] | > 10000 nM | > 10000 nM | > 10000 nM | –
14 | O=C[C@@H]1Cc2ccc(cc2)CC=CCc2cccc(c2)-c2ccn(n2)-c2ncccc2C(=O)N1 [Compound 75, (2^2E,10S)-12-oxo-2^1H-11-aza-1(2,3)-pyridina-2(1,3)-pyrazola-3(1,3),8(1,4)-dibenzenacyclododecaphan-5-ene-10-carbaldehyde] | < 3000 nM | < 3000 nM | < 3000 nM | –
15 | NC(=O)C(=O)[C@@H]1CCCCCCOc2ccnc(n2)-c2ccccc2C(=O)N1 [Compound 134, (S)-2-oxo-2-(3-oxo-12-oxa-4-aza-1(2,4)-pyrimidina-2(1,2)-benzenacyclododecaphane-5-yl)acetamide] | < 3000 nM | < 3000 nM | < 3000 nM | –
16 | O=C[C@@H]1CCCCOCCn2ccc3cccc(c32)C(=O)N1 [Compound 8, (S)-11-Oxo-2,3,4,5,8,9,10,11-octahydrobenzo[b][1]oxa[5]azacyclotridecine-9-carbaldehyde] | 3000 to 10000 nM | < 3000 nM | < 3000 nM | –
17 | O=C[C@@H]1CCCCCOc2ccnc(n2)-c2ccccc2C(=O)N1 [Compound 139, (S)-3-oxo-11-oxa-4-aza-1(2,4)-pyrimidina-2(1,2)-benzena-cycloundecaphane-5-carbaldehyde] | < 3000 nM | < 3000 nM | < 3000 nM | –
